# Data taken from patent publication US3949090A, “Methods and compositions for improving feed efficiency in ruminants using dithiooxamide” (SmithKline Corporation, priority 1974, dated 1976).
# Tested on: Microbial Deaminase (strained rumen fluid)
# Assay: In vitro effects upon amino acid deamination (rumen fluid, starch, urea; 5 hours)
# Format: cell-based
# Protocol: The in vitro fermentation system contained 50 ml. strained rumen fluid, 8 mM urea, 1 g. starch, 1.8 mM of each of 10 essential amino acids (threonine, valine, methionine, isoleucine, leucine, phenylalanine, tryptophan, lysine and arginine) and 0 to 100 ppm dithiooxamide. Flasks were incubated under a CO2 atmosphere for 5 hours with total amino acids assayed prior to and at the end of the fermentation by the method of Borchers [Anal. Chem., 31, (7):1179]. Percent apparent inhibition of deamination in treated flasks was calculated relative to control flasks without added dithiooxamide. Apparent inhibition of deamination in excess of 100% may be observed because of the liberation of amino acids from proteinaceous materials contained in rumen fluid.
# Inhibition of deamination (%) =
# Control deamination (%) - Treated deamination (%)
# Control deamination (%)
# ^1 In vitro fermentation system contained 50 ml. strained rumen fluid
# 1 g. starch, 8 mM urea and 1.8 mM of each of ten essential amino acids.
# Flasks were incubated under a CO2 atmosphere for five hours.
smiles,measurement,setting,value
"NC(=S)C(N)=S [Dithiooxamide, dithiooxamide]",inhibition at 2.5 ppm,"2.5 ppm dithiooxamide, 5 h, 1 replication, read-out: MDI (%)",0%
same,inhibition at 5 ppm,"5 ppm dithiooxamide, 5 h, 4 replications, read-out: MDI (%)",35%
same,inhibition at 7.5 ppm,"7.5 ppm dithiooxamide, 5 h, 1 replication, read-out: MDI (%)",71%
same,inhibition at 10 ppm,"10 ppm dithiooxamide, 5 h, 4 replications, read-out: MDI (%)",57%
same,inhibition at 25 ppm,"25 ppm dithiooxamide, 5 h, 4 replications, read-out: MDI (%)",62%
same,inhibition at 50 ppm,"50 ppm dithiooxamide, 5 h, 2 replications, read-out: MDI (%)",84%
same,inhibition at 75 ppm,"75 ppm dithiooxamide, 5 h, 1 replication, read-out: MDI (%)",100%
same,inhibition at 100 ppm,"100 ppm dithiooxamide, 5 h, 1 replication, read-out: MDI (%)",117%
same,inhibition of microbial deamination of amino acids (in words),"Table I, 7.5 to 100 ppm",effective inhibitor of microbial deamination of amino acids over a wide concentration range
